Experiment: ICP-MS analysis for molybdenum in harvested organs and blood after ECCORS CO delivery in veno-arterial ECMO
Type: in vivo, landrace-hybrid pigs
Settings: swine on ECMO with ECCORS, Beck1 injected into FeCl3 secondary circuit behind silicone membrane
Description: After obtaining consent by Regierungspraesidium Freiburg, seven landrace-hybrid pigs (weight 52±2 kg) were anesthetized (continuous infusion of propofol, fentanyl and cisatracurium), mechanically ventilated and monitored with electrocardiogram, pulse-oximetry and invasive blood pressure measurement by cannulating the carotid and pulmonary artery. Instrumentation with veno-arterial ECMO (extracorporeal membrane oxygenation) was carried out in a sterile technique: Venous access was achieved by ultrasound-guided cannulation of femoral vein (21 French HLS cannula, Maquet, Rastatt, Germany), while arterial inflow into the femoral artery was established using 17 French HLS cannula from Maquet, (Rastatt, Germany). The ECMO circuit (primary circuit) was then set-up using a customary centrifugal pump head (Revolution 5, Sorin, Rome, Italy), an oxygenator (EOS ECMO, Sorin, Rome, Italy), and 3/8” tubing for interconnection. The system was regulated using a modified console (core element: SCP-Console, Sorin, Rome, Italy).
The ECCORS was then integrated in line with the oxygenator into the primary ECMO circuit. A commercially available PDMSXA-1.0 silicone membrane module from PermSelect (AnnArbor, II) served as core functional element of the ECCORS. […]
Tissue was analyzed for CO effects and residual CORM constituents in the harvest organs and blood using ICP-MS analysis for molybdenum. […]

Mo(CO)3(CNCH2COOH)3 [CORM]
toxic components of CORM / transition metals found in tissue or blood: no transition metals can be found in the tissue or blood

From patent US20200397965A1, “METHOD AND SYSTEM FOR […] MONOXIDE (CO) ADMINISTRATION TO EX-VIVO FLUIDS” (Julius-Maximilians-Universitaet Wuerzburg, priority 2018, published 2020)
